Assay results from patent US20220281848A1, “PYRAZOLE-SUBSTITUTED PYRROLIDINONES AS HERBICIDES” (FMC Corporation, priority 2019, published 2022).

Test system: plants
Assay: Test D pre-emergence, other plants of Tables D1 and D3
Assay type: in vivo
Conditions: preemergent, 20 DAA
Outline: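 Damage was rated visually from 0 (none) to 100 (total), at 20 DAA for pre-emergence and 15 d for post-emergence. Plants grew from safener-treated seed in a glasshouse at 24/18° C. or 20/16° C. day/night, 65% humidity, watered twice daily.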

SMILES: CN1CC(c2cc(C(F)(F)F)n(C)n2)C(C(=O)Nc2ccc(F)nc2F)C1=O (racemic) [Compound 22]
- damage to plant (100=total damage to plant; 0=no damage to plant), ABUTH (rate 15): 0
- damage to plant (100=total damage to plant; 0=no damage to plant), ABUTH (rate 30): 0
- damage to plant (100=total damage to plant; 0=no damage to plant), ABUTH (rate 60): 0
- damage to plant (100=total damage to plant; 0=no damage to plant), ABUTH (rate 130): 0
- damage to plant (100=total damage to plant; 0=no damage to plant), ABUTH (rate 250): 0
- damage to plant (100=total damage to plant; 0=no damage to plant), ABUTH (rate 500): 0
- damage to plant (100=total damage to plant; 0=no damage to plant), AMARE (rate 15): 0
- damage to plant (100=total damage to plant; 0=no damage to plant), AMARE (rate 30): 0
- damage to plant (100=total damage to plant; 0=no damage to plant), AMARE (rate 60): 0
- damage to plant (100=total damage to plant; 0=no damage to plant), AMARE (rate 130): 0
- damage to plant (100=total damage to plant; 0=no damage to plant), AMARE (rate 250): 0
- damage to plant (100=total damage to plant; 0=no damage to plant), AMARE (rate 500): 0
- damage to plant (100=total damage to plant; 0=no damage to plant), BIDPI (rate 15): 0
- damage to plant (100=total damage to plant; 0=no damage to plant), BIDPI (rate 30): 0
- damage to plant (100=total damage to plant; 0=no damage to plant), BIDPI (rate 60): 0
- damage to plant (100=total damage to plant; 0=no damage to plant), BIDPI (rate 130): 0
- damage to plant (100=total damage to plant; 0=no damage to plant), BIDPI (rate 250): 0
- damage to plant (100=total damage to plant; 0=no damage to plant), BIDPI (rate 500): 0
- damage to plant (100=total damage to plant; 0=no damage to plant), BRAPL (rate 15): 0
- damage to plant (100=total damage to plant; 0=no damage to plant), BRAPL (rate 30): 20
- damage to plant (100=total damage to plant; 0=no damage to plant), BRAPL (rate 60): 70
- damage to plant (100=total damage to plant; 0=no damage to plant), BRAPL (rate 130): 80
- damage to plant (100=total damage to plant; 0=no damage to plant), BRAPL (rate 250): 90
- damage to plant (100=total damage to plant; 0=no damage to plant), BRAPL (rate 500): 90
- damage to plant (100=total damage to plant; 0=no damage to plant), CYPES (rate 15): 0
- damage to plant (100=total damage to plant; 0=no damage to plant), CYPES (rate 30): 0
- damage to plant (100=total damage to plant; 0=no damage to plant), CYPES (rate 60): 0
- damage to plant (100=total damage to plant; 0=no damage to plant), CYPES (rate 130): 0
- damage to plant (100=total damage to plant; 0=no damage to plant), CYPES (rate 250): 0
- damage to plant (100=total damage to plant; 0=no damage to plant), CYPES (rate 500): 0
- damage to plant (100=total damage to plant; 0=no damage to plant), DIGSA (rate 15): 0
- damage to plant (100=total damage to plant; 0=no damage to plant), DIGSA (rate 30): 20
- damage to plant (100=total damage to plant; 0=no damage to plant), DIGSA (rate 60): 80
- damage to plant (100=total damage to plant; 0=no damage to plant), DIGSA (rate 130): 80
- damage to plant (100=total damage to plant; 0=no damage to plant), DIGSA (rate 250): 100
- damage to plant (100=total damage to plant; 0=no damage to plant), DIGSA (rate 500): 100
- damage to plant (100=total damage to plant; 0=no damage to plant), ECHCG (rate 15): 0
- damage to plant (100=total damage to plant; 0=no damage to plant), ECHCG (rate 30): 0
- damage to plant (100=total damage to plant; 0=no damage to plant), ECHCG (rate 60): 60
- damage to plant (100=total damage to plant; 0=no damage to plant), ECHCG (rate 130): 80
- damage to plant (100=total damage to plant; 0=no damage to plant), ECHCG (rate 250): 90
- damage to plant (100=total damage to plant; 0=no damage to plant), ECHCG (rate 500): 100
- damage to plant (100=total damage to plant; 0=no damage to plant), ELEIN (rate 15): 0
- damage to plant (100=total damage to plant; 0=no damage to plant), ELEIN (rate 30): 0
- damage to plant (100=total damage to plant; 0=no damage to plant), ELEIN (rate 60): 0
- damage to plant (100=total damage to plant; 0=no damage to plant), ELEIN (rate 130): 0
- damage to plant (100=total damage to plant; 0=no damage to plant), ELEIN (rate 250): 0
- damage to plant (100=total damage to plant; 0=no damage to plant), ELEIN (rate 500): 0
- damage to plant (100=total damage to plant; 0=no damage to plant), EPHHL (rate 15): 0
- damage to plant (100=total damage to plant; 0=no damage to plant), EPHHL (rate 30): 0
- damage to plant (100=total damage to plant; 0=no damage to plant), EPHHL (rate 60): 0
- damage to plant (100=total damage to plant; 0=no damage to plant), EPHHL (rate 130): 0
- damage to plant (100=total damage to plant; 0=no damage to plant), EPHHL (rate 250): 0
- damage to plant (100=total damage to plant; 0=no damage to plant), EPHHL (rate 500): 0
- damage to plant (100=total damage to plant; 0=no damage to plant), GLXMA (rate 15): 0
- damage to plant (100=total damage to plant; 0=no damage to plant), GLXMA (rate 30): 0
- damage to plant (100=total damage to plant; 0=no damage to plant), GLXMA (rate 60): 0
- damage to plant (100=total damage to plant; 0=no damage to plant), GLXMA (rate 130): 0
- damage to plant (100=total damage to plant; 0=no damage to plant), GLXMA (rate 250): 0
- damage to plant (100=total damage to plant; 0=no damage to plant), GLXMA (rate 500): 0
- damage to plant (100=total damage to plant; 0=no damage to plant), IPOHE (rate 15): 0
- damage to plant (100=total damage to plant; 0=no damage to plant), IPOHE (rate 30): 0
- damage to plant (100=total damage to plant; 0=no damage to plant), IPOHE (rate 60): 0
- damage to plant (100=total damage to plant; 0=no damage to plant), IPOHE (rate 130): 0
- damage to plant (100=total damage to plant; 0=no damage to plant), IPOHE (rate 250): 0
- damage to plant (100=total damage to plant; 0=no damage to plant), IPOHE (rate 500): 0
- damage to plant (100=total damage to plant; 0=no damage to plant), ORYSA (rate 15): 0
- damage to plant (100=total damage to plant; 0=no damage to plant), ORYSA (rate 30): 0
- damage to plant (100=total damage to plant; 0=no damage to plant), ORYSA (rate 60): 0
- damage to plant (100=total damage to plant; 0=no damage to plant), ORYSA (rate 130): 0
- damage to plant (100=total damage to plant; 0=no damage to plant), ORYSA (rate 250): 0
- damage to plant (100=total damage to plant; 0=no damage to plant), ORYSA (rate 500): 0
- damage to plant (100=total damage to plant; 0=no damage to plant), PANMI (rate 15): 0
- damage to plant (100=total damage to plant; 0=no damage to plant), PANMI (rate 30): 0
- damage to plant (100=total damage to plant; 0=no damage to plant), PANMI (rate 60): 0
- damage to plant (100=total damage to plant; 0=no damage to plant), PANMI (rate 130): 0
- damage to plant (100=total damage to plant; 0=no damage to plant), PANMI (rate 250): 0
- damage to plant (100=total damage to plant; 0=no damage to plant), PANMI (rate 500): 0
- damage to plant (100=total damage to plant; 0=no damage to plant), SETFA (rate 15): 0
- damage to plant (100=total damage to plant; 0=no damage to plant), SETFA (rate 30): 0
- damage to plant (100=total damage to plant; 0=no damage to plant), SETFA (rate 60): 0
- damage to plant (100=total damage to plant; 0=no damage to plant), SETFA (rate 130): 30
- damage to plant (100=total damage to plant; 0=no damage to plant), SETFA (rate 250): 60
- damage to plant (100=total damage to plant; 0=no damage to plant), SETFA (rate 500): 90
- damage to plant (100=total damage to plant; 0=no damage to plant), SORVU (rate 15): 0
- damage to plant (100=total damage to plant; 0=no damage to plant), SORVU (rate 30): 0
- damage to plant (100=total damage to plant; 0=no damage to plant), SORVU (rate 60): 0
- damage to plant (100=total damage to plant; 0=no damage to plant), SORVU (rate 130): 0
- damage to plant (100=total damage to plant; 0=no damage to plant), SORVU (rate 250): 0
- damage to plant (100=total damage to plant; 0=no damage to plant), SORVU (rate 500): 0
